Reference: BindingDB's records for doi:10.1021/jm991049m (University of Camerino, 1999)
pKi: −log10 of the molar value.

Columns and labels:
[1] = Predicted affinity for imidazoline receptor I2 by three field CoMFA model
[2] = as above; remark: listed apart in the source
[3] = as above; remark: listed apart in the source

c1ccc([C@H]2C[C@H]2C2=NCCN2)cc1
pKi [1]: 6.14

c1ccc([C@@H]2C[C@H]2C2=NCCN2)cc1
pKi [2]: 7.64

c1ccc([C@@H]2C[C@@H]2C2=NCCN2)cc1
pKi [1]: 6.48

c1ccc([C@H]2C[C@@H]2C2=NCCN2)cc1
pKi [3]: 6.60
